Data taken from patent US9140688B2, “Sperm staining and sorting methods” (INGURAN, LLC, priority 2011, dated 2015).

Legend:
[1] = tested on: X- and Y-chromosome bearing bovine sperm stained with Hoechst 33342; assay: Split quality: height of peak divided by height of valley (PV), flow cytometry of stained bovine sperm; format: cell-based; conditions: for Height of Peak/Height of Valley: Ex 5; for PV: Ex 6, resulting pH 6.70
[2] = solvent water; shorter-wavelength local maximum; cited from earlier work
[3] = tested on: membrane compromised bovine sperm stained with Hoechst 33342; assay: Dead quenching: dead gate intensity divided by live gate intensity, flow cytometry of stained bovine sperm; format: cell-based; conditions: for Dead Intensity (dead gate intensity divided by live gate intensity): Ex 5; for Intensity (dead gate): Hoechst 48 μM
Description: FIG. 4 illustrates an example bivariate plot and univariate histogram of the parameters measured during sex selection by a FACS on a flow cytometer. […] Without a dead quenching dye, both populations of sperm would overlap to a large extent, with unpredictable variations in the dead sperm.
The entire ejaculate of sperm was suspended in first staining buffer, specifically a 7.4 pH TALP described in TABLE 1, to a concentration of 160×10^6 sperm per mL (determined on nucleocounter) and divided into three aliquots of about 20 mL into 50 mL Falcon tubes and pre-warmed for 10 minutes at 34° C. The DNA selective fluorescent dye, Hoechst 33342, was added and samples were held at 34° C. for 60 minutes. 3 different Hoechst 33342 Stain Levels were used=12 μL, 14 μL and 16 μL per 2 mL (effective concentrations of 48 μM, 56 μM, 64 μM).
Preparation of the second buffer including the dead quenching dye—A 2 L bag of TALP, described in TABLE 1, was adjusted to pH 5.60 using HCl and then sterile filtered. […] For each of the four dyes tested (R40—red food dye No. 40, Y5—yellow food dye No. 5, Y6—yellow food dye No. 6 and PR—phenol red), an appropriate number of milligrams of each powder was placed in a Erlenmeyer Flask and then an exact amount of TALP pH 5.60 was added to create a […] concentration of the dye. The result was a working TALP stock for each dye with a 100% (125 μM) relative amount of dye 50% relative (62.5 μM) and 20% relative (25 μM) solutions were made by dilution of 100% by TALP pH 5.60.
After this “bulk” staining for 60 minutes, 1 mL aliquots of stained sperm were combined with 1 mL aliquots of the second buffer including the dead quenching dyes. Samples sat for approximately 30 minutes at room temperature before being analyzed on a MoFlo SX (Beckman Coulter, USA) sperm sorting flow cytometer. Event rates were held as close to 13,000 as possible at the point of data acquisition.
The total number of individual treatments was 42 tubes, each containing 2 mL of stained sample. The alignment of the sorter was established using nuclei and confirmed with live sample from the 50% Red 40 series. Once good alignment was established, each tube was placed on the sorter long enough to establish a stabile dead gate population (about 30 seconds) and then a screenshot was taken and saved as a .jpeg image. This approach of rapidly documenting each sample is used to assure the most consistent alignment between all samples. Realignment of sorter will not cause differences in the intensities of live and dead gate populations but will cause differences in split quality.
FIG. 4 illustrates an example histogram. The ratio of dead gate intensity divided by live gate intensity is created by dividing the distance “A” by the distance “B” shown as a percentage. Lower values mean higher levels of quenching. The ratio of peak height divided by valley height is created by dividing the distance “C” by the distance “D”. A value of 1.00 means “no split” while higher values mean “better splits”. […]

sperm = conditions: background statement; cited from earlier work
[4] = dye 62.5 μM, Hoechst 12 μL/2 mL
[5] = dye 62.5 μM, Hoechst 14 μL/2 mL
[6] = dye 62.5 μM, Hoechst 16 μL/2 mL

**Q.** What does the source list for `O=C([O-])C1=NN(c2ccc(S(=O)(=O)[O-])cc2)C(=O)/C1=N/Nc1ccc(S(=O)(=O)[O-])cc1.[Na+].[Na+].[Na+]` [Yellow 5, Trisodium (4E)-5-oxo-1-(4-sulfonatophenyl)-4-[(4-sulfonatophenyl)hydrazono]-3-pyrazolecarboxylate]?
**A.** Height of Peak/Height of Valley ([1]; dye 25 μM, Average of 12 and 14 μL series): 1.72; Height of Peak/Height of Valley ([1]; dye 25 μM, Hoechst 12 μL/2 mL): 1.90; Height of Peak/Height of Valley ([1]; dye 25 μM, Hoechst 14 μL/2 mL): 1.54; Height of Peak/Height of Valley ([1]; dye 25 μM, Hoechst 16 μL/2 mL): 1.00; Height of Peak/Height of Valley ([1]; dye 62.5 μM, Average of 12 and 14 μL series): 1.65; Height of Peak/Height of Valley [1, 4]: 1.60; Height of Peak/Height of Valley [1, 5]: 1.70; Height of Peak/Height of Valley [1, 6]: 1.00; Height of Peak/Height of Valley ([1]; dye 125 μM, Average of 12 and 14 μL series): 1.82; Height of Peak/Height of Valley ([1]; dye 125 μM, Hoechst 12 μL/2 mL): 1.72; Height of Peak/Height of Valley ([1]; dye 125 μM, Hoechst 14 μL/2 mL): 1.92; Height of Peak/Height of Valley ([1]; dye 125 μM, Hoechst 16 μL/2 mL): 1.03; PV ([1]; dye 125 μM, Hoechst 48 μM): 1.00; PV ([1]; dye 250 μM, Hoechst 48 μM): 1.00; PV ([1]; dye 500 μM, Hoechst 48 μM): 1.00; PV ([1]; dye 750 μM, Hoechst 48 μM): 1.00; PV ([1]; dye 875 μM, Hoechst 48 μM): 1.00; PV ([1]; dye 1250 μM, Hoechst 48 μM (understained)): 1.00; Expected Absorption Maxima [2]: 422 nm; Dead Intensity (dead gate intensity divided by live gate intensity) ([3]; dye 25 μM, Average of Hoechst levels): 90%; Dead Intensity (dead gate intensity divided by live gate intensity) ([3]; dye 25 μM, Hoechst 12 μL/2 mL): 90%; Dead Intensity (dead gate intensity divided by live gate intensity) ([3]; dye 25 μM, Hoechst 14 μL/2 mL): 90%; Dead Intensity (dead gate intensity divided by live gate intensity) ([3]; dye 25 μM, Hoechst 16 μL/2 mL): 90%; Dead Intensity (dead gate intensity divided by live gate intensity) ([3]; dye 62.5 μM, Average of Hoechst levels): 74%; Dead Intensity (dead gate intensity divided by live gate intensity) [3, 4]: 74%; Dead Intensity (dead gate intensity divided by live gate intensity) [3, 5]: 77%; Dead Intensity (dead gate intensity divided by live gate intensity) [3, 6]: 70%; Dead Intensity (dead gate intensity divided by live gate intensity) ([3]; dye 125 μM, Average of Hoechst levels): 57%; Dead Intensity (dead gate intensity divided by live gate intensity) ([3]; dye 125 μM, Hoechst 12 μL/2 mL): 54%; Dead Intensity (dead gate intensity divided by live gate intensity) ([3]; dye 125 μM, Hoechst 14 μL/2 mL): 63%; Dead Intensity (dead gate intensity divided by live gate intensity) ([3]; dye 125 μM, Hoechst 16 μL/2 mL): 55%; amount of dye needed for a similar dead gate intensity ratio as red food dye No. 40 and yellow food dye No. 6 ([3]; Ex 6): about five times as much; Intensity (dead gate) ([3]; Ex 6, dye 125 μM, resulting pH 6.70): 63%; Intensity (dead gate) ([3]; Ex 6, dye 250 μM, resulting pH 6.70): 48%; Intensity (dead gate) ([3]; Ex 6, dye 500 μM, resulting pH 6.70): 43%; Intensity (dead gate) ([3]; Ex 6, dye 750 μM, resulting pH 6.70): <30%; Intensity (dead gate) ([3]; Ex 6, dye 875 μM, resulting pH 6.70): <30%; Intensity (dead gate) ([3]; Ex 6, dye 1250 μM, second buffer pH 5.60 (resulting pH 6.70)): <30%

**Q.** With `CC[N+](C)(CC)CCC[n+]1c(-c2ccccc2)c2cc(N)ccc2c2ccc(N)cc21.[I-].[I-]` [propidium iodine] as the molecule, how does the toxicity to sperm (sperm) read?
**A.** toxic to sperm
